Results published in patent publication US20250270221A1, “SOLID FORMS OF JAK INHIBITOR AND PROCESS OF PREPARING THE SAME” (Incyte Corporation, priority 2022, published 2025).

How the values were obtained:
Type in all cases: physicochemical
[1] = Water activity slurry experiments (XRPD of solid phase); settings: 20 d
Method: Limited water activity slurries were conducted utilizing ruxolitinib di-hydrate (see table below). The effect of water activity (aw) on the hydration state of the di-hydrate was investigated through competitive water activity trituration experiments (slurries) in various aqueous solvent mixtures. The resulting solid phase was characterized by XRPD. […] Water activity is also related to relative humidity in that RH %=aw×100. Therefore, it is possible to directly relate the stability of an anhydrous/hydrate system in slurry experiments to solid-state stability. […] The method is particularly valuable when relatively slow kinetics of conversion in the solid state prevents reaching true equilibrium in a reasonable timeframe, since solvent-mediated transformation accelerates the conversion process.

[2] = Relative humidity testing (physical stability, XRPD)
Source text: Ruxolitinib di-hydrate was held at select relative humidities to help determine range of physical stability (see table below). The d-hydrate was transferred to a vial, which was then uncapped and placed inside a jar, for a designated time period, containing a saturated aqueous salt solution: […]

[3] = Solubility of crystalline ruxolitinib di-hydrate in organic solvents; settings: for solubility: organic solvent or mixture, thermodynamic from solid
Source text: The resulting ruxolitinib free base readily dissolved in the organic solvents.

[4] = Dynamic vapor sorption (DVS Intrinsic, Method D, not dried); parameters: Hysteresis: unit not given here
Method: The samples were not dried prior to analysis. Sorption and desorption data were collected from 5% to 95% RH in 10% RH increments under a nitrogen purge. The equilibrium criteria used for the analyses were 0.001 dm/dt weight change in 5 minutes with a minimum step time of 30 minutes and maximum equilibration time of 180 minutes with a 3 minute data logging interval. Data were not corrected for the initial moisture content of the sample.

[5] = Aqueous solubility of crystalline ruxolitinib di-hydrate; settings: 20 °C, thermodynamic from solid, 20-25° C.
[6] = Dynamic vapor sorption (VTI-SA+, sample pre-dried at 60° C.)
Method: The DVS experiment was performed on a VTI-SA+ Vapor Sorption Analyzer from TA Instruments. […] Then the humidity was cycled from 5% RH to 95% RH (adsorption) and back to 5% RH (desorption) with 5% RH interval at a constant temperature of 25° C. The equilibration criteria were 0.010 wt % in 5 minutes with a maximum equilibration time of 180 minutes per step.

[7] = Dehydration of ruxolitinib di-hydrate (resulting solid form)
Source text: Dehydration of ruxolitinib di-hydrate results in the isolation of anhydrous crystalline ruxolitinib free base (Form I) (see table below). Form I is described in more detail in Example 15.

[8] = Target RH 95.0%, sample RH 94.0%

For `N#CC[C@H](C1CCCC1)n1cc(-c2ncnc3[nH]ccc23)cn1` [Ruxolitinib Di-hydrate, (R)-3-(4-(7H-pyrrolo[2,3-d]pyrimidin-4-yl)-1H-pyrazol-1-yl)-3-cyclopentylpropanenitrile di-hydrate], the “Result (solid form)” value ([1]; 0.34 aw, 75:25 DMSO/H2O) was “Di-hydrate”, the “Result (solid form)” value ([1]; 0.42 aw, 70:30 DMSO/H2O) was “Di-hydrate” and the “Result (solid form)” value ([1]; 0.68 aw, 50:50 DMSO/H2O) was “Di-hydrate”. For the same compound, the “Result (solid form)” value ([2]; 0% RH, N2, RT, 1 d) was “Di-hydrate + Form I”, the “Result (solid form)” value ([2]; 11% RH, RT, 2 d) was “Di-hydrate” and the “Result (solid form)” value ([2]; 11% RH, RT, 14 d) was “Di-hydrate”. For the same compound, the “Result (solid form)” value ([2]; 33% RH, RT, 2 d) was “Di-hydrate”, the “Result (solid form)” value ([2]; 53% RH, RT, 2 d) was “Di-hydrate” and the “Result (solid form)” value ([2]; 98% RH, RT, 2 d) was “Di-hydrate”. For the same compound, the “Result (solid form)” value ([2]; 98% RH, RT, 4 d) was “Di-hydrate”, the “Relative humidity at which the di-hydrate form is physically stable” value ([2]; during the time tested) was “above 11 % RH” and the “Relative humidity of conversion to anhydrous crystalline free base form (Form I)” value ([2]; undetermined value, during the time tested) was “below 11 % RH”. For the same compound, the solubility ([3]; acetone) was over 500 mg/mL, the solubility ([3]; ethyl acetate) was over 200 mg/mL and the solubility ([3]; Ethanol (EtOH)) was over 500 mg/mL. For the same compound, the solubility ([3]; Isopropanol (IPA)) was over 500 mg/mL, the solubility ([3]; Methanol (MeOH)) was over 500 mg/mL and the “Behaviour of the hydrate in polar solvents” value ([3]; polar organic solvents) was “lost crystalline water”. The “Sorp Mass Change” value ([4]; Target RH 5.0%, sample RH 4.8%) was 0.0013%, the “Desorp Mass Change” value ([4]; Target RH 5.0%, sample RH 5.6%) was 0.0334% and the Hysteresis ([4]; Target RH 15.0%) was 0.0528. For the same compound, the “Sorp Mass Change” value ([4]; Target RH 15.0%, sample RH 15.1%) was 0.0412%, the “Desorp Mass Change” value ([4]; Target RH 15.0%, sample RH 17.1%) was 0.0940% and the Hysteresis ([4]; Target RH 25.0%) was 0.0461. For the same compound, the “Sorp Mass Change” value ([4]; Target RH 25.0%, sample RH 25.0%) was 0.0707%, the “Desorp Mass Change” value ([4]; Target RH 25.0%, sample RH 25.8%) was 0.1168% and the Hysteresis ([4]; Target RH 35.0%) was 0.0399. The “Sorp Mass Change” value ([4]; Target RH 35.0%, sample RH 35.0%) was 0.0904%, the “Desorp Mass Change” value ([4]; Target RH 35.0%, sample RH 35.9%) was 0.1302% and the Hysteresis ([4]; Target RH 45.0%) was 0.0378. The “Sorp Mass Change” value ([4]; Target RH 45.0%, sample RH 45.1%) was 0.1069%, the “Desorp Mass Change” value ([4]; Target RH 45.0%, sample RH 46.0%) was 0.1447% and the Hysteresis ([4]; Target RH 55.0%) was 0.0357. The “Sorp Mass Change” value ([4]; Target RH 55.0%, sample RH 55.1%) was 0.1214%, the “Desorp Mass Change” value ([4]; Target RH 55.0%, sample RH 56.0%) was 0.1572% and the Hysteresis ([4]; Target RH 65.0%) was 0.0347. The “Sorp Mass Change” value ([4]; Target RH 65.0%, sample RH 65.1%) was 0.1359%, the “Desorp Mass Change” value ([4]; Target RH 65.0%, sample RH 66.0%) was 0.1706% and the Hysteresis ([4]; Target RH 75.0%) was 0.0311. For the same compound, the “Sorp Mass Change” value ([4]; Target RH 75.0%, sample RH 74.9%) was 0.1561%, the “Desorp Mass Change” value ([4]; Target RH 75.0%, sample RH 76.6%) was 0.1872% and the Hysteresis ([4]; Target RH 85.0%) was 0.0233. For the same compound, the “Sorp Mass Change” value ([4]; Target RH 85.0%, sample RH 84.8%) was 0.1882%, the “Desorp Mass Change” value ([4]; Target RH 85.0%, sample RH 87.6%) was 0.2115% and the “Desorp Mass Change” value [4, 8] was 0.2343%. The “Sorp Mass Change” value [4, 8] was 0.2343%, the “Weight lost upon desorption” value ([4]; desorption 95 to 5% RH) was 0.20% and the Weight gained ([4]; from 5 to 95% relative humidity) was 0.23%. The solubility ([5]; aqueous buffer, pH 6.0 (PBS)) was 17.4 µg/mL, the solubility ([5]; aqueous buffer, pH 6.5 (PBS)) was 106 µg/mL and the solubility ([5]; aqueous buffer, pH 7.0 (PBS)) was 101 µg/mL. The solubility ([5]; aqueous buffer, pH 7.4 (PBS)) was 100 µg/mL, the solubility ([5]; fassif, FeSSIF (pH 6.5)) was 112 µg/mL and the solubility ([5]; saline or isotonic, Saline (pH 5.5)) was 105 µg/mL. It also gave a solubility ([5]; simulated gastric fluid, 0.1N HCl) of over 10700 µg/mL, a solubility ([5]; simulated gastric fluid, SGF (pH 1.6)) of over 11000 µg/mL and a solubility ([5]; FeSSIF (pH 5.0)) of 419 µg/mL. It also gave a solubility ([5]; Water) of 111 µg/mL, a solubility ([5]; HCl solution, simulated gastric fluid, pH 2.0 (HCl)) of 3470 µg/mL and a solubility ([5]; KHP buffer, aqueous buffer, pH 3.0 (KHP)) of 1570 µg/mL. The solubility ([5]; KHP buffer, aqueous buffer, pH 5.5 (KHP)) was 107 µg/mL, the solubility ([5]; KPH buffer (so in the source), aqueous buffer, pH 4.0 (KPH)) was 362 µg/mL and the solubility ([5]; acetate buffer, aqueous buffer, pH 5.5 (Acetate)) was 93.5 µg/mL. For the same compound, the solubility ([5]; aqueous KHP solution, aqueous buffer, pH 5.0 (KHP)) was 147 µg/mL, the solubility ([5]; aqueous acetate solution, aqueous buffer, pH 4.0 (Acetate)) was 186 µg/mL and the solubility ([5]; aqueous acetate solution, aqueous buffer, pH 5.0 (Acetate)) was 296 µg/mL. For the same compound, the solubility ([5]; borate buffer, aqueous buffer, pH 8.5 (Borate)) was 112 µg/mL, the “Solid form after pre-dried step” value ([6]; 60° C. under dry N2 (0% RH) for 1 h) was “dehydrated to form amorphous ruxolitinib free base” and the “Solid form after DVS (XRPD)” value ([6]; after cycle 5% RH to 95% RH and back to 5% RH, 25° C.) was “crystalline ruxolitinib di-hydrate”. The Water re-adsorbed ([6]; at 95% RH, 25° C., after pre-drying at 60° C.) was 9.6%, the “Result (solid form)” value ([7]; 42° C. oven, 1 d) was “Di-” and the “Result (solid form)” value ([7]; 50° C., vacuum oven, 1 d) was “Form I”. For the same compound, the “Result (solid form)” value ([7]; 80° C./30 minutes) was “amorphous”, the “Result (solid form)” value ([7]; 110° C./20 minutes) was “amorphous” and the “Result (solid form)” value ([7]; P2O5 jar, RT, 4 d) was “Form I”. For the same compound, the “Result (solid form)” value ([7]; P2O5 jar, RT, 5 d) was “Form I”, the “Result (solid form)” value ([7]; P2O5 jar, RT, 13 d) was “conversion” and the “Result (solid form)” value ([7]; P2O5 jar, RT, 21 d, di-hydrate crystals) was “Form I”. For the same compound, the “Result (solid form)” value ([7]; RT, vacuum oven, 1 d) was “Form I”.
